Our source for the EC50 values is patent publication US9975878B2, “Substituted triazine BMI-1 inhibitors” (PTC Therapeutics, Inc., priority 2013, dated 2018).

This experiment relates to Bmi-1 protein. The experiment can be described thus: Sandwich ELISA Assay: Bmi-1 protein level in HT-1080 cells treated with test compounds. The experiment is classed as cell-based. Here is the method:
Cell Seeding and Compound Treatment (Day 1):
HT-1080 cells were seeded at 8000 cells/well (50 μL) in 96-well tissue culture plates. After the cells became adherent (3-4 hours), 2× diluted stocks of test compounds in 50 μL DMEM containing 1% DMSO (final DMSO concentration was 0.5%) were added and the plates were incubated at 37° C. under 5% CO2 for 40-48 hours.
ELISA Plate First Antibody Preparation (Day 2):
The First Antibody (Millipore Mouse, monoclonal to mouse Bmi-1, clone F6, catalog #05-637) diluted to 2 μg/mL in PBS was added (100 μL) to each well of a Nunc MaxiSorp 96-well ELISA plate. The plate was covered with a plate seal and allowed to stand overnight.
Cell Lysate Preparation (Day 3):
Fresh Lysis buffer (1×) was prepared on the day of the assay as follows: 1 mM EDTA, 150 mM NaCl, 0.5% Triton-X 100, 10 mM NaF, 20 mM B-Glycerophosphate, 1 mM DTT (in PBS, pH 7.2-7.4) and HALT protease inhibitor cocktail (1×) (Pierce #78410).
Lysis Buffer (1×, 40 μL) was added to each well and the plate was shaken for 5-10 minutes on an orbital shaker to allow cell lysis, then diluent (1% BSA in PBS in 0.5% NP40) (100 μL) was added to each well.
A standard curve was prepared at the following Bmi-1 concentrations: 8000, 4000, 2000, 1000, 500, 250, 125 and 0 pg/mL. The Bmi-1 Recombinant Protein Standard (Novus Biologicals PCGF4 Recombinant Protein (P01), catalog # H00000648-P01) used to prepare the standard curve was stored at −80° C. On first thaw, the Recombinant Protein Standard was diluted to 10 μg/μL in Blocking Buffer (1% BSA in PBS; BSA: Fisher Scientific Catalog #1600-100). Aliquots were taken and refrozen at −80° C. The aliquots may be kept at 4° C. and reused after first thaw, but only within 1-2 weeks. The Recombinant Protein Standard contains a GST-fusion tag that appears at approximately 70 Kda on Western Blot.
The prepared ELISA plate was washed 3× with Wash Buffer (0.05% Tween-20 in PBS). The final wash was removed from the plate and the plate was blotted dry. Blocking Buffer (300 μL) (1% BSA in PBS) was added to each well. The plate was covered with a plate seal and incubated at room temperature for 1 hour. The blocked plate was washed 3× with Wash Buffer, then the final wash was removed and the plate was blotted dry. The previously prepared samples and standards were added (100 μL/well) and the plate was covered with a plate seal and incubated at 4° C. overnight.
The prepared ELISA plate was removed from incubation and allowed to stand at room temperature for 30 minutes, then washed and blotted dry. The Second Antibody (Cell Signaling Rabbit anti-Bmi-1, Cat# 2830) diluted to 1:600 in Blocking Buffer was added (100 μL) to each well, except as needed for background control wells. The plate was covered with a plate seal and incubated for 1.5 hrs at room temperature.
The ELISA plate was washed and blotted dry as previously described. The Third Antibody (Cell Signaling HRP conjugated anti-rabbit IgG (CellSignaling, Cat#:7074) diluted to 1:300 in Blocking Buffer was added (100 μL) to each well, except as needed for background control wells. The plate was incubated for 1 hr at room temperature.
The plate was washed and blotted dry, then a previously prepared TMB substrate (TMB substrate kit, Pierce catalog #34021) (prepared by mixing kit reagents 1:1) (100 μL) was added per well. The plate was incubated for 20-30 minutes at room temperature in the dark, then Stop Solution (2 M sulfuric acid in water) (50 μL) was added per well. The plates were read at OD450 (experimental) and OD570 (reference).
Take `COc1ccc(Nc2nc(N)nc(-c3c(C(F)(F)F)nc4ccccn34)n2)cc1F` [Cpd 1, N-(3-fluoro-4-methoxyphenyl)-6-[2-(trifluoromethyl)imidazo[1,2-a]pyridin-3-yl]-1,3,5-triazine-2,4-diamine]: the EC50 (usually the concentration at which the effect is half-maximal) lay within 1 to 10 nM. `Cc1nc2ccccc2n1-c1nc(N)nc(Nc2ccc(C(F)(F)F)cc2)n1` [Cpd 2, 6-(2-methyl-1H-benzimidazol-1-yl)-N-[4-(trifluoromethyl)phenyl]-1,3,5-triazine-2,4-diamine] showed an EC50 of 10 to 100 nM. Then `Cc1nc2ccccc2n1-c1nc(N)nc(Nc2ccc(OC(F)(F)F)cc2)n1` [Cpd 3, 6-(2-methyl-1H-benzimidazol-1-yl)-N-[4-(trifluoromethoxy)phenyl]-1,3,5-triazine-2,4-diamine], with 100 to 3000 nM; and `Cc1nc2ccccc2n1-c1nc(N)nc(Nc2ccc(OC(F)F)cc2)n1` [Cpd 4, N-[4-(difluoromethoxy)phenyl]-6-(2-methyl-1H-benzimidazol-1-yl)-1,3,5-triazine-2,4-diamine], with 10 to 100 nM; and `Cc1nc2ccccc2n1-c1nc(N)nc(Nc2ccc(C(F)(F)F)c(F)c2)n1` [Cpd 5, N-[3-fluoro-4-(trifluoromethyl)phenyl]-6-(2-methyl-1H-benzimidazol-1-yl)-1,3,5-triazine-2,4-diamine], with 100 to 3000 nM. With `Cc1nc2ccccc2n1-c1nc(N)nc(Nc2ccc(OC(F)F)c(F)c2)n1` [Cpd 6, N-[4-(difluoromethoxy)-3-fluorophenyl]-6-(2-methyl-1H-benzimidazol-1-yl)-1,3,5-triazine-2,4-diamine], the EC50 fell in the range of 10 to 100 nM. For `Cc1nc2ccccc2n1-c1nc(N)nc(Nc2ccc3[nH]ccc3c2)n1` [Cpd 7, N-(1H-indol-5-yl)-6-(2-methyl-1H-benzimidazol-1-yl)-1,3,5-triazine-2,4-diamine] the value was 1 to 10 nM; for `Cc1nc2ccccc2n1-c1nc(N)nc(Nc2ccc3occc3c2)n1` [Cpd 8, N-(1-benzofuran-5-yl)-6-(2-methyl-1H-benzimidazol-1-yl)-1,3,5-triazine-2,4-diamine], 10 to 100 nM; for `Cc1nc2cc(F)c(F)cc2n1-c1nc(N)nc(Nc2ccc(C(F)(F)F)cc2)n1` [Cpd 9, 6-(5,6-difluoro-2-methyl-1H-benzimidazol-1-yl)-N-[4-(trifluoromethyl)phenyl]-1,3,5-triazine-2,4-diamine], 100 to 3000 nM. Then `Cc1nc2cc(F)c(F)cc2n1-c1nc(N)nc(Nc2ccc(OC(F)F)c(F)c2)n1` [Cpd 10, N-[4-(difluoromethoxy)-3-fluorophenyl]-6-(5,6-difluoro-2-methyl-1H-benzimidazol-1-yl)-1,3,5-triazine-2,4-diamine], with 100 to 3000 nM. For `Cc1nc2cc(F)c(F)cc2n1-c1nc(N)nc(Nc2ccc(OC(F)F)cc2)n1` [Cpd 11, N-[4-(difluoromethoxy)phenyl]-6-(5,6-difluoro-2-methyl-1H-benzimidazol-1-yl)-1,3,5-triazine-2,4-diamine] the value was 10 to 100 nM. For `Cc1nc2cc(Cl)c(Cl)cc2n1-c1nc(N)nc(Nc2ccc(C(F)(F)F)cc2)n1` [Cpd 12, 6-(5,6-dichloro-2-methyl-1H-benzimidazol-1-yl)-N-[4-(trifluoromethyl)phenyl]-1,3,5-triazine-2,4-diamine], the EC50 lay within 100 to 3000 nM. For `Cc1nc2ccccc2n1-c1nc(NO)nc(Nc2ccc(C(F)(F)F)cc2)n1` [Cpd 13, N-hydroxy-6-(2-methyl-1H-benzimidazol-1-yl)-N′-[4-(trifluoromethyl)phenyl]-1,3,5-triazine-2,4-diamine] the value was 100 to 3000 nM.

In the case of `Cc1nc2ccccc2n1-c1nc(N)nc(Nc2ccc3ncccc3c2)n1` [Cpd 14, 6-(2-methyl-1H-benzimidazol-1-yl)-N-(quinolin-6-yl)-1,3,5-triazine-2,4-diamine], the EC50 is 1 to 10 nM. Then `Cc1nc2ccccc2n1-c1nc(N)nc(Nc2ccc3ocnc3c2)n1` [Cpd 15, N-(1,3-benzoxazol-5-yl)-6-(2-methyl-1H-benzimidazol-1-yl)-1,3,5-triazine-2,4-diamine], with 100 to 3000 nM; and `Cc1nc2ccccc2n1-c1nc(NO)nc(Nc2ccc3ncccc3c2)n1` [Cpd 16, N-hydroxy-6-(2-methyl-1H-benzimidazol-1-yl)-N′-(quinolin-6-yl)-1,3,5-triazine-2,4-diamine], with 10 to 100 nM; and `Cc1nc2ncccc2n1-c1nc(N)nc(Nc2ccc(C(F)(F)F)cc2)n1` [Cpd 17, 6-(2-methyl-1H-imidazo[4,5-b]pyridin-1-yl)-N-[4-(trifluoromethyl)phenyl]-1,3,5-triazine-2,4-diamine], with 100 to 3000 nM. Then `Cc1nc2ccccc2n1-c1nc(N)nc(Nc2ccc3c(c2)OCO3)n1` [Cpd 18, N-(1,3-benzodioxol-5-yl)-6-(2-methyl-1H-benzimidazol-1-yl)-1,3,5-triazine-2,4-diamine], with 1 to 10 nM; and `Cc1nc2ccccc2n1-c1nc(NCCO)nc(Nc2ccc3c(c2)OCO3)n1` [Cpd 19, 2-{[4-(1,3-benzodioxol-5-ylamino)-6-(2-methyl-1H-benzimidazol-1-yl)-1,3,5-triazin-2-yl]amino}ethanol], with 100 to 3000 nM; and `Cc1nc2ccccc2n1-c1nc(N)nc(Nc2cnc3ccccc3c2)n1` [Cpd 20, 6-(2-methyl-1H-benzimidazol-1-yl)-N-(quinolin-3-yl)-1,3,5-triazine-2,4-diamine], with 1 to 10 nM.

`Cc1nc2ccccc2n1-c1nc(NCCO)nc(Nc2cnc3ccccc3c2)n1` [Cpd 21, 2-{[4-(2-methyl-1H-benzimidazol-1-yl)-6-(quinolin-3-ylamino)-1,3,5-triazin-2-yl]amino}ethanol] registered an EC50 of 10 to 100 nM. For the molecule `Cc1nc2ccccc2n1-c1nc(N)nc(Nc2cc3ccccc3cn2)n1` [Cpd 22, N-(isoquinolin-3-yl)-6-(2-methyl-1H-benzimidazol-1-yl)-1,3,5-triazine-2,4-diamine], the 50% effective concentration (EC50) lay within 10 to 100 nM. For `Cc1nc2ncccc2n1-c1nc(N)nc(Nc2ccc(OC(F)F)cc2)n1` [Cpd 23, N-[4-(difluoromethoxy)phenyl]-6-(2-methyl-1H-imidazo[4,5-b]pyridin-1-yl)-1,3,5-triazine-2,4-diamine] the value was 100 to 3000 nM; for `Cc1nc2ncc(F)cc2n1-c1nc(N)nc(Nc2ccc(C(F)(F)F)cc2)n1` [Cpd 24, 6-(6-fluoro-2-methyl-1H-imidazo[4,5-b]pyridin-1-yl)-N-[4-(trifluoromethyl)phenyl]-1,3,5-triazine-2,4-diamine], 100 to 3000 nM; for `Nc1nc(Nc2ccc(C(F)(F)F)cc2)nc(-c2c(C(F)(F)F)nc3ccc(F)cn23)n1` [Cpd 25, 6-[6-fluoro-2-(trifluoromethyl)imidazo[1,2-a]pyridin-3-yl]-N-[4-(trifluoromethyl)phenyl]-1,3,5-triazine-2,4-diamine], 10 to 100 nM. For `Cc1nc2ccc(F)cc2n1-c1nc(N)nc(Nc2ccc(C(F)(F)F)cc2)n1` [Cpd 26, 6-(6-fluoro-2-methyl-1H-benzimidazol-1-yl)-N-[4-(trifluoromethyl)phenyl]-1,3,5-triazine-2,4-diamine] the value was 10 to 100 nM; for `Cc1nc2cc(F)ccc2n1-c1nc(N)nc(Nc2ccc(C(F)(F)F)cc2)n1` [Cpd 27, 6-(5-fluoro-2-methyl-1H-benzimidazol-1-yl)-N-[4-(trifluoromethyl)phenyl]-1,3,5-triazine-2,4-diamine], 100 to 3000 nM.
